Where two headings read alike, the source gives them in different places.
What was measured:
spores of F. oxysporum = assay: Sporicidal assay (1) with sodium nitrite, F. oxysporum; also: key: 2* = Control growth; 1 = Reduced growth; 0 = No growth; format: cell-based, Fusarium oxysporum f. sp. cubense; settings: test item 1%, 30 min
Rhizoctonia solani [1] = assay: Inhibition of fungal growth assay (radial growth on PDA); settings: for IC50 (% of stock solution) on growth of R. solani: potato dextrose agar, 24 hour culture at 22° C.
Description: Inhibition of fungal growth assay. The Rhizoctonia solani (R. solani) strain was isolated from sclerotia on the skin of a potato and was maintained in culture on potato dextrose agar (PDA) at room temperature (22° C.). To assess the effects of the compositions on fungal growth, 10 microliters of the test compositions diluted in sterile distilled water was placed in the wells of a 12-well tissue culture plate and 1 milliliter of PDA was added by pipette to each well. The plate was agitated to distribute the test composition evenly throughout the agar (distilled water alone was used as control) and then the agar was allowed to set. Plugs of agar containing fungal hyphae (3×3 millimeters) from an established fungal culture were cut out using a scalpel and inserted into holes cut into the centre of the agar in each well of the 12-well plate, which was then cultured at room temperature. To assess the effects of compositions on radial fungal growth, the diameter of the fungal hyphae was measured twice at a 90° angle using a ruler and the average diameter in millimeters was calculated. Concentrations of compositions required to inhibit the radial growth of R. solani by 50% (IC50) were determined graphically.

spores of B. cinerea = assay: Sporicidal assay (1) with sodium nitrite, B. cinerea; format: cell-based, Botrytis cinerea; settings: test item 1%, 30 min;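 also: score 0 no growth 1 reduced growth 2 control-level growth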
Rhizoctonia solani [2] = tested on: Rhizoctonia solani
Description: To assess the effects of composition on fungal growth, 10 microliters of the test compositions diluted in sterile distilled water were placed in the wells of a 12-well tissue culture plate and 1 milliliter of PDA was added by pipette to each well. The plate was agitated to distribute the test composition evenly throughout the agar (distilled water alone was used as control) and then the agar was allowed to set. Plugs of agar containing fungal hyphae (3×3 millimeters) from an established fungal culture were cut out using a scalpel and inserted into holes cut into the centre of the agar in each well of the 12-well plate, which was then cultured at room temperature (22° C.). To assess the effects of compositions on radial fungal growth, the diameter the fungal hyphae was measured twice at a 90° angle using a ruler and the average diameter in millimeters was calculated. If no fungal growth could be detected by eye, the cultures were observed by phase microscopy (40×) to confirm that there was no growth (NG) as judged by visual examination.
To assess the effects of compounds and compositions on sclerotia formation, the R. solani cultures were examined daily and radial fungal growth was measured until the cultures were confluent after which time the development of white (immature) sclerotia and mature (black pigmented) sclerotia was noted and the number of mature sclerotia was counted on day 10 of culture.

O.O.O.O.O.O=S(=O)([O-])[O-].[Cu+2] [CuSO4, copper sulfate pentahydrate]
Fungal growth score, spores of F. oxysporum (spores of F. oxysporum; NaNO2 0 mM): 2
Fungal growth score, spores of F. oxysporum (spores of F. oxysporum; NaNO2 1 mM): 2
Fungal growth score, spores of F. oxysporum (spores of F. oxysporum; NaNO2 3 mM): 2
Fungal growth score, spores of F. oxysporum (spores of F. oxysporum; NaNO2 10 mM): 2
Fungal growth score, spores of F. oxysporum (spores of F. oxysporum; NaNO2 30 mM): 2
IC50 (% of stock solution) on growth of R. solani (Rhizoctonia solani [1]): 0.39 % of stock solution
Fungal growth score, spores of B. cinerea (spores of B. cinerea; NaNO2 0 mM): 2
Fungal growth score, spores of B. cinerea (spores of B. cinerea; NaNO2 1 mM): 2
Fungal growth score, spores of B. cinerea (spores of B. cinerea; NaNO2 3 mM): 2
Fungal growth score, spores of B. cinerea (spores of B. cinerea; NaNO2 10 mM): 2
Fungal growth score, spores of B. cinerea (spores of B. cinerea; NaNO2 30 mM): 2
Fungal growth score, spores of B. cinerea (spores of B. cinerea; NaNO2 100 mM): 0

O=C(O)CNCP(=O)(O)O [Glyphosate, 2-[(phosphonomethyl)amino] acetic acid]
Day 1 growth in mm (Rhizoctonia solani [2]; 0.27 g/L (Table 11)): 20 mm
Day black SCL 1st seen (Rhizoctonia solani [2]; 0.27 g/L (Table 11)): 5
Day growth confluent (Rhizoctonia solani [2]; 0.27 g/L (Table 11)): 2
Day white SCL 1st seen (Rhizoctonia solani [2]; 0.27 g/L (Table 11)): 3
No. black SCL on day 10 (Rhizoctonia solani [2]; 0.27 g/L (Table 11)): >20
Day 1 growth in mm (Rhizoctonia solani [2]; 0.8 g/L (Table 11)): 14 mm
Day black SCL 1st seen (Rhizoctonia solani [2]; 0.8 g/L (Table 11)): 6
Day growth confluent (Rhizoctonia solani [2]; 0.8 g/L (Table 11)): 2
Day white SCL 1st seen (Rhizoctonia solani [2]; 0.8 g/L (Table 11)): 3
No. black SCL on day 10 (Rhizoctonia solani [2]; 0.8 g/L (Table 11)): 8
Day 1 growth in mm (Rhizoctonia solani [2]; 2.7 g/L (Table 11)): 8 mm
Day black SCL 1st seen (Rhizoctonia solani [2]; 2.7 g/L (Table 11)): 8
Day growth confluent (Rhizoctonia solani [2]; 2.7 g/L (Table 11)): 6
Day white SCL 1st seen (Rhizoctonia solani [2]; 2.7 g/L (Table 11)): 6
No. black SCL on day 10 (Rhizoctonia solani [2]; 2.7 g/L (Table 11)): 4
Day 1 growth in mm (Rhizoctonia solani [2]; 8 g/L (Table 11)): 6 mm
No. black SCL on day 10 (Rhizoctonia solani [2]; 8 g/L (Table 11)): 0

O=[PH]([O-])O.[K+] [Potassium phosphite, potassium phosphite]
Day 1 growth in mm (Rhizoctonia solani [2]; 10 mg/L (Table 9)): 19 mm
Day black SCL 1st seen (Rhizoctonia solani [2]; 10 mg/L (Table 9)): 5
Day growth confluent (Rhizoctonia solani [2]; 10 mg/L (Table 9)): 2
Day white SCL 1st seen (Rhizoctonia solani [2]; 10 mg/L (Table 9)): 3
No. black SCL on day 10 (Rhizoctonia solani [2]; 10 mg/L (Table 9)): 9
Day 1 growth in mm (Rhizoctonia solani [2]; 20 mg/L (Table 9)): 19 mm
Day black SCL 1st seen (Rhizoctonia solani [2]; 20 mg/L (Table 9)): 7
Day growth confluent (Rhizoctonia solani [2]; 20 mg/L (Table 9)): 2
Day white SCL 1st seen (Rhizoctonia solani [2]; 20 mg/L (Table 9)): 4
No. black SCL on day 10 (Rhizoctonia solani [2]; 20 mg/L (Table 9)): 2
Day 1 growth in mm (Rhizoctonia solani [2]; 40 mg/L (Table 9)): 19 mm
Day growth confluent (Rhizoctonia solani [2]; 40 mg/L (Table 9)): 2
No. black SCL on day 10 (Rhizoctonia solani [2]; 40 mg/L (Table 9)): 0
Day 1 growth in mm (Rhizoctonia solani [2]; 80 mg/L (Table 9)): 18 mm
Day growth confluent (Rhizoctonia solani [2]; 80 mg/L (Table 9)): 2
No. black SCL on day 10 (Rhizoctonia solani [2]; 80 mg/L (Table 9)): 0
Day 1 growth in mm (Rhizoctonia solani [2]; 160 mg/L (Table 9)): 15 mm
Day growth confluent (Rhizoctonia solani [2]; 160 mg/L (Table 9)): 3
No. black SCL on day 10 (Rhizoctonia solani [2]; 160 mg/L (Table 9)): 0
IC50 values with R. solani (fungal growth) (Rhizoctonia solani [1]): ~400 mg/L

O=S(=O)([O-])[O-].[Zn+2] [ZnSO4, zinc sulfate]
IC50 (% of stock solution) on growth of R. solani (Rhizoctonia solani [1]): 0.33 % of stock solution
Fungal growth score, spores of B. cinerea (spores of B. cinerea; NaNO2 0 mM): 2
Fungal growth score, spores of B. cinerea (spores of B. cinerea; NaNO2 1 mM): 2
Fungal growth score, spores of B. cinerea (spores of B. cinerea; NaNO2 3 mM): 2
Fungal growth score, spores of B. cinerea (spores of B. cinerea; NaNO2 10 mM): 2
Fungal growth score, spores of B. cinerea (spores of B. cinerea; NaNO2 30 mM): 2
Fungal growth score, spores of B. cinerea (spores of B. cinerea; NaNO2 100 mM): 1

Source: patent US11395492B2, “Antimicrobial and agrochemical compositions” (Myco Sciences Limited, priority 2015, dated 2022)
